Data reported in PubChem BioAssay (NCI).
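Tested at 5 concentrations; 48 h exposure; 96-well plates; endpoints linearly interpolated, else capped at highest concentration. The concentration for full growth arrest is given as TGI.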

How the values were obtained:
Assay in all cases: DTP human tumour cell line panel, 48 h
[1] = test system: A498 renal
[2] = test system: SNB-19 CNS
[3] = test system: M14 melanoma
[4] = test system: SF-295 CNS
[5] = test system: BT-549 breast
[6] = test system: DU-145 prostate
[7] = test system: TK-10 renal
[8] = test system: ACHN renal
[9] = test system: OVCAR-3 ovarian
[10] = test system: OVCAR-8 ovarian
[11] = test system: UACC-62 melanoma
[12] = test system: U251 CNS
[13] = test system: COLO 205 colon
[14] = test system: EKVX NSCLC
[15] = test system: RPMI-8226 leukemia
[16] = test system: RXF 393 renal
[17] = test system: UO-31 renal
[18] = test system: SF-268 CNS
[19] = test system: HCT-15 colon
[20] = test system: NCI-H522 lung
[21] = test system: SK-MEL-2 melanoma
[22] = test system: HCT-116 colon
[23] = test system: HOP-62 NSCLC
[24] = test system: OVCAR-5 ovarian
[25] = test system: HCC-2998 colon
[26] = test system: CCRF-CEM leukemia
[27] = test system: UACC-257 melanoma
[28] = test system: KM12 colon
[29] = test system: HT29 colon
[30] = test system: IGROV1 ovarian
[31] = test system: SNB-75 CNS
[32] = test system: MCF7 breast
[33] = test system: OVCAR-4 ovarian
[34] = test system: 786-0 renal
[35] = test system: MALME-3M melanoma
[36] = test system: SK-MEL-28 melanoma
[37] = test system: SN12C renal
[38] = test system: PC-3 prostate
[39] = test system: A549 NSCLC
[40] = test system: K-562 leukemia
[41] = test system: NCI-H23 lung
[42] = test system: NCI-H226 lung
[43] = test system: HOP-92 NSCLC
[44] = test system: HS 578T breast
[45] = test system: CAKI-1 renal
[46] = test system: T-47D breast
[47] = test system: HL-60(TB) leukemia
[48] = test system: MOLT-4 leukemia
[49] = test system: SK-MEL-5 melanoma
[50] = test system: SF-539 CNS
[51] = test system: MDA-N
[52] = test system: LOX IMVI melanoma
[53] = test system: MDA-MB-231 breast
[54] = test system: SR leukemia
[55] = test system: SK-OV-3 ovarian
[56] = test system: NCI-H460 lung
[57] = test system: NCI/ADR-RES ovarian
[58] = test system: MDA-MB-435
[59] = test system: SW-620 colon

## COC(=O)[C@@H]1C[C@H]([Se]c2ccccc2)CN1S(=O)(=O)c1ccc(C)cc1
[1]
  TGI: > 100 µM
[2]
  TGI: > 100 µM
[3]
  TGI: > 100 µM
[4]
  TGI: > 100 µM
[5]
  TGI: > 100 µM
[6]
  TGI: > 100 µM
[7]
  TGI: > 100 µM
[8]
  TGI: > 100 µM
[9]
  TGI: > 100 µM
[10]
  TGI: > 100 µM
[11]
  TGI: > 100 µM
[12]
  TGI: > 100 µM
[13]
  TGI: > 100 µM
[14]
  TGI: > 100 µM
[15]
  TGI: > 100 µM
[16]
  TGI: > 100 µM
[17]
  TGI: > 100 µM
[18]
  TGI: > 100 µM
[19]
  TGI: > 100 µM
[20]
  TGI: > 100 µM
[21]
  TGI: > 100 µM
[22]
  TGI: > 100 µM
[23]
  TGI: > 100 µM
[24]
  TGI: > 100 µM
[25]
  TGI: > 100 µM
[26]
  TGI: > 100 µM
[27]
  TGI: > 100 µM
[28]
  TGI: > 100 µM
[29]
  TGI: > 100 µM
[30]
  TGI: > 100 µM
[31]
  TGI: 44.5 µM
[32]
  TGI: > 100 µM
[33]
  TGI: > 100 µM
[34]
  TGI: > 100 µM
[35]
  TGI: > 100 µM
[36]
  TGI: > 100 µM
[37]
  TGI: > 100 µM
[38]
  TGI: > 100 µM
[39]
  TGI: > 100 µM
[40]
  TGI: > 100 µM
[41]
  TGI: > 100 µM
[42]
  TGI: > 100 µM
[43]
  TGI: > 100 µM
[44]
  TGI: > 100 µM
[45]
  TGI: > 100 µM
[46]
  TGI: > 100 µM
[47]
  TGI: > 100 µM
[48]
  TGI: > 100 µM
[49]
  TGI: > 100 µM
[50]
  TGI: > 100 µM
[51]
  TGI: > 100 µM
[52]
  TGI: > 100 µM
[53]
  TGI: > 100 µM
[54]
  TGI: > 100 µM
[55]
  TGI: > 100 µM
[56]
  TGI: > 100 µM
[57]
  TGI: > 100 µM
[58]
  TGI: > 100 µM
[59]
  TGI: > 100 µM
